Measurements from patent publication US10144726B2, “Modulators of the p70S6 kinase for use in the treatment of brain disorders and triple-negative breast cancer” (SENTINEL ONCOLOGY LIMITED, priority 2015, dated 2018).

Legend:
[1] = test system: phosphorylation of S6 Ser235/236 in MCF-7 cells; assay: MCF-7 pS6 ELISA (phosphorylation of S6 Ser235/236); assay type: cell-based; details: Homo sapiens, MCF7; S6 Ser235/236, 1% FBS, 2 h; read-out: (b) MCF-7 pS6 ELISA IC50
Protocol: The following assay provides IC50 values for inhibition of P70S6K activity in a whole cell assay by determining effects on the phosphorylation of S6^Ser235/236 in MCF-7 cells by ELISA.
The following protocol was used: • 1) MCF-7 cells were seeded in 96-well plates at a density of 7000 cells per well and allowed to adhere for 6 h in media containing 10% FBS. • 2) The full serum media was replaced and cells incubated overnight in media containing 1% FBS, prior to addition of test compounds. • 3) Test compounds were prepared from 10 mM DMSO stocks to give final concentration ranges as indicated on graphs. DMSO was constant at a final concentration of 1%. • 4) Test compounds were incubated with cells in duplicate for 2 h at 37° C/5% CO2 in a humidified atmosphere. • 5) The media was removed and cells were lysed by freeze-thawing in cell lysis buffer. • 6) Detection of phosphorylated S6Ser235/236 was then carried out using a PathScan ELISA kit (Cell Signaling Technology #7205). • 7) Lysates were diluted 1:1 with sample diluent before being applied to wells coated with an antibody against phosphorylated-S6 protein. • 8) The ELISA was then performed as stated in the manufacturers' instructions. • 9) The raw data were normalised to control values and analysed using a 4-parameter logistic equation in GraphPad Prism.

MCF-7 cells = assay: MCF-7 proliferation assay (Alamar blue, 72 h); assay type: cell-based; details: Homo sapiens, MCF7, 72 h; read-out: (c) MCF-7 proliferation IC50
Protocol: The following assay was used to determine the ability of test compounds to inhibit cell growth.
The following protocol was used: • 1) MCF-7 cells were seeded in 96-well plates at 5000 cells per well and allowed to adhere overnight prior to addition of compound or vehicle control. • 2) Test compounds were prepared from 10 mM DMSO stocks to give a final concentration range of 100 μM, 30 μM, 10 μM, 3 μM, 1 μM, 0.3 μM, 0.1 μM, 0.03 μM, 0.01 μM and vehicle control. The DMSO content was constant at 1%. • 3) Test compounds were incubated with the cells for 72 h at 37° C. 5% CO2 in a humidified atmosphere. • 4) Alamar blue 10% (v/v) was then added and incubated for a further 6 h, and fluorescent product detected using the BMG FLUOstar plate reader. • 5) Data were analysed using a 4-parameter logistic equation in GraphPad Prism.

MDA-MB-231 (luc) cells = assay: Control of brain metastases arising from MDA-MB-231 (luc) cells after intra-cardiac injection; assay type: in vivo
Description: In order to test the efficacy of an inhibitor of S6K1 in preventing brain metastases arising from TNBC cells, an in vivo mouse model was established:
Using a luciferase-tagged TNBC cell line (MDA-MB-231 (luc)) it was possible to track the spread of metastatic cells to the brain and other major organs via mouse whole-body imaging.
The MDA-MB-231(luc) cell-line was derived from MDA-MB-231 cells originally purchased from ATCC. These cells were stably transfected with pGL4.51 (Promega) using Lipofectamine 2000 (Life Technologies). Stably transfected colonies were selected for using neomycin and the most highly expressing clone was expanded. The cells have similar in vivo growth characteristics as the parental MDA-MB-231 cells.
Female athymic mice (Hsd:Athymic Nude-Foxn1^nu) were purchased from Harlan (UK) and acclimatised for 7 days prior to study commencement. Animals were housed in
The dosing route was p.o. and the formulation was as follows: 10% DMSO/90% hydroxypropyl-β-cyclodextrin (20% w/v aqueous)
On day 0 animals were anaesthetized and injected with 1×10^5 MDA-MB-231 (luc) cells directly into the heart. Intra-cardiac injection was chosen as this method leads to brain metastases. On day +1 animals were imaged using a Xenogen IVIS machine (following IP injection of 150 mg/kg) of D-luciferin). Evidence of light only in the cardiac area was indicative of a failed implantation and these animals were removed from the study. The experiment was commenced with 7 animals per treatment group to guarantee 5 animals per group completed the study.
Animals were imaged on 3 occasions during the study: 24 hours following intracardiac injection, 35 days after implantation and at the end of the study (70 days after implantation). For imaging, animals were first injected i.p. with D-luciferin (150 mg/kg) and 10 minutes later the animals were imaged under anaesthesia.
At the end of the 70 days, animals were imaged using the same method as described at 35 days. Following this the animals were then sacrificed and brain, liver and lungs were removed and imaged individually for metastatic spread.

C[C@@H](Nc1cnc2cc(-c3cn[nH]c3)ccc2n1)c1cccc(Cl)c1 [Example 15]
IC50 [1]: 0.5 µM | IC50 (MCF-7 cells): 12 µM | Incidence of metastasis Brain (MDA-MB-231 (luc) cells; 125 mg/kg p.o. BID x 70 days): 0% | Incidence of metastasis Liver (MDA-MB-231 (luc) cells; 125 mg/kg p.o. BID x 70 days): 0% | Incidence of metastasis Lung (MDA-MB-231 (luc) cells; 125 mg/kg p.o. BID x 70 days): 40% | No. deaths on study (MDA-MB-231 (luc) cells; 125 mg/kg p.o. BID x 70 days): 0 | Animals with visible metastases, whole body imaging (MDA-MB-231 (luc) cells; 125 mg/kg p.o. BID, at 35 days): 0 out of 5 | Tolerability (MDA-MB-231 (luc) cells; 70 consecutive days of BID dosing, no treatment related deaths or adverse clinical signs): well-tolerated
